Data from US8546391B2, “Thiadiazole and oxadiazole derivatives, preparation thereof and therapeutic use thereof” (Sanofi, priority 2009, dated 2013).
pIC50: −log10 of the molar value.

Tests used:
[1] = system: triglyceride biosynthesis; experiment: in vitro inhibitory activity on triglyceride biosynthesis, cell test ([14C] glycerol incorporation in Chang liver cells); type: cell-based; conditions: compounds incubated 30 minutes, then [14C] glycerol incorporation for 6 hours, read-out: inhibitory activity on triglyceride biosynthesis, concentration that inhibits 50% of the activity
Description: These trials consisted in measuring the in vitro inhibitory activity of the compounds of the invention on a cell test.
Chang liver cells at 80% confluence are detached with trypsin-EDTA, 4 ml per 175 cm^2 flask. After centrifugation at 1300×g for 5 minutes, the cell pellet is washed once with PBS and then resuspended in whole medium. The number of cells and their viability are determined on Mallassez cells via the exclusion method with trypan blue.
150 000 cells are inoculated per well into a 24-well plate for a minimum of 3 hours in DMEM medium 4.5 g/l of glucose supplemented with 10% FCS and with antibiotics, and are maintained at 37° C. in an incubator with CO2 (5%).
After 3 hours, the cells have adhered, the medium is removed and replaced overnight with DMEM medium 4.5 g/l of glucose with 2% of BSA/oleate.
After culturing for 18 hours without serum, the test compounds are incubated for 30 minutes ([…], 30, 100, 300 and 1000 nM) with the cells, followed by addition of [^14C] glycerol (0.4 μCi/ml/well) for an incorporation time of 6 hours.
The supernatant is drawn off and the cells are recovered by treatment with trypsin-EDTA, 100 μl/well, for 5 minutes at 37° C. This cell suspension is then recovered in an Eppendorf tube and is washed with twice 500 μl of PBS. The centrifugation at 1300×g for 5 minutes allows recovery of the cell pellets, which may be frozen at −20° C. In order to extract the lipids from the cell pellet, 400 μl of a methanol/dichloromethane/trifluoroacetic acid mixture (50/50/0.1%) is used to resuspend the cells. Next, the cell membranes are destroyed by sonication on a water bath, for 30 minutes. The samples are filtered through a 0.45 μm filtered and then injected onto a C18 HPLC column of 4.6×75 mm, 3 μm with a mobile phase of 5% (H2O+0.1% TFA), 70% methanol, 25% dichloromethane, with a flow rate of 1.5 ml/minute. The radioactivity is measured using a Flo One C625TR machine (Perkin-Elmer).
The inhibitory activity on triglyceride biosynthesis is given by the concentration that inhibits 50% of the activity.

Row | melting point [°C] | pIC50 [1] | SMILES
1 | 298 |  | CC(C)(C)c1nnc(NC(=O)c2ccc(C3CCC(CC(=O)O)CC3)cc2)s1 (stereo not drawn) [Compound 14, {4-[4-(5-tert-butyl[1,3,4]thiadiazol-2-ylcarbamoyl)phenyl]cyclohexyl}acetic acid]
2 | 268 |  | O=C(O)CC1CCC(c2ccc(C(=O)Nc3nnc(CC4CCCC4)s3)cc2)CC1 (stereo not drawn) [Compound 17, {4-[4-(5-cyclopentylmethyl[1,3,4]thiadiazol-2-ylcarbamoyl)phenyl]cyclohexyl}acetic acid]
3 | 263 |  | CC(C)Cc1nnc(NC(=O)c2ccc(C3CCC(CC(=O)O)CC3)cc2)s1 (stereo not drawn) [Compound 19, {4-[4-(5-isobutyl[1,3,4]thiadiazol-2-ylcarbamoyl)phenyl]cyclohexyl}acetic acid]
4 | 229 |  | O=C(O)CC1CCC(c2ccc(C(=O)Nc3nnc(CCCc4ccc(F)cc4)s3)cc2)CC1 (stereo not drawn) [Compound 23, [4-(4-{5-[3-(4-fluorophenyl)propyl][1,3,4]thiadiazol-2-ylcarbamoyl}phenyl)cyclohexyl]-acetic acid]
5 | 275 |  | O=C(O)CC1CCC(c2ccc(C(=O)Nc3nnc(COc4ccc(F)cc4)s3)cc2)CC1 (stereo not drawn) [Compound 24, (4-{4-[5-(4-fluorophenoxymethyl)[1,3,4]thiadiazol-2-ylcarbamoyl]phenyl}cyclohexyl)-acetic acid]
6 | 258 |  | O=C(O)C[C@H]1CC[C@H](c2ccc(C(=O)Nc3nnc([C@H]4C[C@@H](c5ccccc5)C4)s3)cc2)CC1 [Compound 75, trans-(4-{4-[5-(3-phenylcyclobutyl)[1,3,4]thiadiazol-2-ylcarbamoyl]phenyl}cyclohexyl)acetic acid]
7 | 294 |  | O=C(O)C[C@H]1CC[C@H](c2ccc(C(=O)Nc3nnc(Cc4cc(F)cc(F)c4)s3)cc2)CC1 [Compound 78, trans-(4-{4-[5-(3,5-difluorobenzyl)[1,3,4]thiadiazol-2-ylcarbamoyl]phenyl}cyclohexyl)-acetic acid]
8 | 217 to 223 |  | O=C(Nc1nnc(COCC2CCCO2)s1)c1ccc(O[C@H]2CC[C@H](C(=O)O)CC2)cc1 (stereo partly drawn) [Compound 82, trans-4-{4-[5-(tetrahydrofuran-2-ylmethoxymethyl)[1,3,4]thiadiazol-2-ylcarbamoyl]-phenoxy}cyclohexanecarboxylic acid]
9 | 240 to 268 |  | O=C(O)C[C@H]1CC[C@H](c2ccc(C(=O)Nc3nnc(CCC(=O)c4ccccc4)s3)cc2)CC1 [Compound 83, trans-(4-{4-[5-(3-oxo-3-phenylpropyl)[1,3,4]thiadiazol-2-ylcarbamoyl]phenyl}cyclohexyl)acetic acid]
10 | 335 |  | O=C(O)C[C@H]1CC[C@H](c2ccc(C(=O)Nc3nnc(NC4CCCC4)s3)cc2)CC1 [Compound 92, trans-{4-[4-(5-cyclopentylamino[1,3,4]thiadiazol-2-ylcarbamoyl)phenyl]cyclohexyl}-acetic acid]

Continued, molecule first:

Row | SMILES | melting point [°C] | pIC50 [1]
11 | O=C(O)CC1CCC(c2ccc(C(=O)Nc3nnc(C4CCCC4)s3)cc2)CC1 (stereo not drawn) [Compound 16, {4-[4-(5-cyclopentyl[1,3,4]thiadiazol-2-ylcarbamoyl)phenyl]cyclohexyl}acetic acid] | 274 | 
12 | O=C(O)CC1CCC(c2ccc(C(=O)Nc3nnc(COc4ccccc4)s3)cc2)CC1 (stereo not drawn) [Compound 22, {4-[4-(5-phenoxymethyl[1,3,4]thiadiazol-2-ylcarbamoyl)phenyl]cyclohexyl}acetic acid] | 261 | 
13 | O=C(O)C[C@H]1CC[C@H](c2ccc(C(=O)Nc3nnc(COC4CCCC4)s3)cc2)CC1 [Compound 37, trans-{4-[4-(5-cyclopentyloxymethyl[1.3.4]thiadiazol-2-ylcarbamoyl)-phenyl]cyclohexyl}acetic acid] |  | 7.74
14 | O=C(O)C=C1CCC(c2ccc(C(=O)Nc3nnc(Cc4ccccc4)s3)cc2)CC1 (stereo not drawn) [Compound 42, {4-[4-(5-benzyl[1,3,4]thiadiazol-2-ylcarbamoyl)phenyl]cyclohexylidene}acetic acid] | 255 | 
15 | O=C(Nc1nnc(Cc2ccccc2)s1)c1ccc(C2CCC3(CC2)CC3C(=O)O)cc1 (stereo not drawn) [Compound 43, 6-[4-(5-benzyl[1.3.4]thiadiazol-2-ylcarbamoyl)phenyl]spiro[2.5]-octane-1-carboxylic acid] | 255 | 
16 | O=C(O)COC1CCC(c2ccc(C(=O)Nc3nnc(Cc4ccccc4)s3)cc2)CC1 (stereo not drawn) [Compound 46, trans-{4-[4-(5-benzyl[1.3.4]thiadiazol-2-ylcarbamoyl)phenyl]cyclohexyloxy}acetic acid] | 250 to 255 | 
17 | O=C(O)C[C@H]1CC[C@H](c2ccc(C(=O)Nc3nnc(CCN4CCOCC4)s3)cc2)CC1 [Compound 48, trans-(4-{4-[5-(2-morpholin-4-ylethyl)[1,3,4]thiadiazol-2-ylcarbamoyl]phenyl}cyclohexyl)acetic acid] | 213 | 
18 | O=C(O)C[C@H]1CC[C@H](c2ccc(C(=O)Nc3nnc(N4CCOCC4)s3)cc2)CC1 [Compound 49, trans-{4-[4-(5-morpholin-4-yl[1,3,4]thiadiazol-2-ylcarbamoyl)phenyl]cyclohexyl}acetic acid] | > 250 | 
19 | O=C(Nc1nnc(CCC2CCCC2)s1)c1ccc(O[C@H]2CC[C@@H](C(=O)O)CC2)cc1 [Compound 57, cis-4-{4-[5-(2-cyclopentylethyl)[1,3,4]thiadiazol-2-ylcarbamoyl]phenoxy}cyclohexanecarboxylic acid] | 270 | 
20 | O=C(Nc1nncs1)c1ccc(O[C@H]2CC[C@@H](C(=O)O)CC2)cc1 [Compound 61, cis-4-[4-([1,3,4]thiadiazol-2-ylcarbamoyl)phenoxy]cyclohexanecarboxylic acid] | 277 | 
21 | O=C(O)C[C@H]1CC[C@H](c2ccc(C(=O)Nc3nnc(NC(=O)Cc4ccccc4)s3)cc2)CC1 [Compound 76, {4-[4-(5-phenylacetylamino[1,3,4]thiadiazol-2-ylcarbamoyl)phenyl]cyclohexyl}acetic acid] | 291 | 
22 | O=C(O)C[C@H]1CC[C@H](c2ccc(C(=O)Nc3nnc(CC4CCC(O)CC4)s3)cc2)CC1 (stereo partly drawn) [Compound 79, trans-(4-{4-[5-(4-hydroxycyclohexylmethyl)[1,3,4]thiadiazol-2-ylcarbamoyl]phenyl}-cyclohexyl)acetic acid] | > 250 | 
23 | O=C(O)C[C@H]1CC[C@H](Oc2ccc(C(=O)Nc3nnc(Cc4ccccc4)s3)cc2)CC1 [Compound 81, trans-{4-[4-(5-benzyl[1,3,4]thiadiazol-2-ylcarbamoyl)phenoxy]cyclohexyl}acetic acid] | 230 to 250 | 
24 | O=C(O)C[C@H]1CC[C@H](c2ccc(C(=O)Nc3nnc(CCC(O)c4ccccc4)s3)cc2)CC1 (stereo partly drawn) [Compound 84, (4-{4-[5-(3-hydroxy-3-phenylpropyl)[1.3.4]thiadiazol-2-ylcarbamoyl]-phenyl}cyclohexyl)acetic acid] | 239 to 242 | 
25 | O=C(Nc1nnc(-c2cccc(Cl)c2)s1)c1ccc([C@H]2CC[C@H]([C@H]3C[C@@H]3C(=O)O)CC2)cc1 [Compound 85, trans-(1S,2R)-2-(4-{4-[5-(3-chlorophenyl)[1,3,4]thiadiazol-2-ylcarbamoyl]phenyl}cyclohexyl)cyclopropanecarboxylic acid] | > 250 | 
26 | O=C(C[C@H]1CC[C@H](c2ccc(C(=O)Nc3nnc(Cc4ccccc4)s3)cc2)CC1)NCC1COCCO1 (stereo partly drawn) [Compound 93, trans-N-(5-benzyl[1,3,4]thiadiazol-2-yl)-4-(4-{[([1,4]dioxan-2-ylmethyl)carbamoyl]-methyl}cyclohexyl)benzamide] | 281 | 
27 | O=C(O)C[C@H]1CC[C@H](c2ccc(C(=O)Nc3nnc(C[S+]([O-])Cc4ccccc4)s3)cc2)CC1 (stereo partly drawn) [Compound 95, trans-{4-[4-(5-phenylmethanesulfinylmethyl[1.3.4]thiadiazol-2-ylcarbamoyl)phenyl]cyclohexyl}acetic acid] | 241 | 
28 | O=C(O)C[C@H]1CC[C@H](c2ccc(C(=O)Nc3nnc(CSCc4ccccc4)s3)cc2)CC1 [Compound 96, trans-{4-[4-(5-benzylsulfanylmethyl[1,3,4]thiadiazol-2-ylcarbamoyl)phenyl]cyclohexyl}-acetic acid] | 234 | 
29 | O=C(O)C[C@H]1CC[C@H](c2ccc(C(=O)Nc3nnc(C4CC(c5ccccc5)C4)s3)cc2)CC1 (stereo partly drawn) [Compound 97, trans-(4-{4-[5-(3-phenylcyclobutyl)[1,3,4]thiadiazol-2-ylcarbamoyl]phenyl}cyclohexyl)-acetic acid] | 247 | 
30 | O=C(CCc1nnc(NC(=O)c2ccc(O[C@H]3CC[C@@H](C(=O)O)CC3)cc2)s1)c1ccccc1 [Compound 102, cis-4-{4-[5-(3-oxo-3-phenylpropyl)[1,3,4]thiadiazol-2-ylcarbamoyl]phenoxy}cyclohexanecarboxylic acid] | 220 to 260 | 
